Reference: patent US20180369327A1, “METHOD FOR TREATING OR PREVENTING OSTEOARTHRITIS” (Dong-A University Research Foundation for Industry-Academy …, priority 2017, published 2018)
Entries after “also recorded” stand apart in the source; their conditions may differ.

Key:
[1] = tested on: rat articular chondrocytes; assay: Cell viability assay (automated trypan blue exclusion); format: cell-based; details: n=4
Protocol: Rat articular chondrocytes for primary culture were isolated from knee joint cartilage slices by enzymatic digestion for 1 h with 0.2% type II collagenase (381 units/mg) in DMEM. After the isolated cells were collected by brief centrifugation, they were resuspended in DMEM supplemented with 10% (v/v) FBS, […] streptomycin and 50 units/ml penicillin (Gibco). The cells were plated on culture dishes at a density of 5×10^4 cells/cm^2. The medium was replaced every 2 days, and they reached confluence after approximately 5 days in culture. In each experiment, the cells from three animals were pooled and analyzed three times.
FFA were dissolved in absolute ethanol at a concentration of 500 mM and diluted to final concentrations of FFAs with the appropriate concentration of 1% (w/v) FFA-free BSA. Controls were incubated with equal concentrations of FFA-free BSA containing ethanol. To examine the effect of several chemicals, cells were pretreated with 150 μg/mL DRB or 30 μM cilostazol for 24 h or 25 ng/ml TNF-α for 3 h before FFA treatment.
siRNA transfection or combination treatment with FFAs. Transfection of siRNA was performed with the use of siPORT Amine and Opti-MEM media. Cells grown to a confluence of 40% to 50% in six-well plates were transfected with 100 nM final siRNA concentration per well. Transfection mixture was added to each well, and incubation occurred for 4 h. Then 2 ml of growth medium was added, and cells were incubated for another 20 h. After siRNA transfection medium was removed, each well was washed in PBS solution. Cells were treated with FFAs for 24 hours.
Recombinant adenoviral STAMP2 was prepared as described previously34. Cells (1×10^7) were infected with recombinant adenoviral STAMP2 at multiplicities of infection (MOI) of 500, 1000 and 1500 to the medium.
An automated trypan blue exclusion assay was undertaken. Total cells and trypan bluestained (i.e., nonviable) cells were counted, and the percentage of nonviable cells was calculated using the Vi-Cell cell counter (Beckman Coulter, Miami, Fla., USA).

[2] = tested on: STAMP2; assay: Western blot of STAMP2 protein in articular chondrocytes; format: cell-based, rat; details: n=4
Protocol: (§1) Rat articular chondrocytes for primary culture were isolated from knee joint cartilage slices by enzymatic digestion for 1 h with 0.2% type II collagenase (381 units/mg) in DMEM. After the isolated cells were collected by brief centrifugation, they were resuspended in DMEM supplemented with 10% (v/v) FBS, […] streptomycin and 50 units/ml penicillin (Gibco). The cells were plated on culture dishes at a density of 5×10^4 cells/cm^2. The medium was replaced every 2 days, and they reached confluence after approximately 5 days in culture. In each experiment, the cells from three animals were pooled and analyzed three times. FFA were dissolved in absolute ethanol at a concentration of 500 mM and diluted to final concentrations of FFAs with the appropriate concentration of 1% (w/v) FFA-free BSA. Controls were incubated with equal concentrations of FFA-free BSA containing ethanol. […] Cell (2×10^6) were washed twice with ice-cold PBS. Cells were resuspended in lysis buffer [200 ll of icecold solubilizing buffer (300 mM NaCl, 50 mM Tris-Cl (pH 7.6), 0.5% Triton X-100, protease inhibitor cocktail)] and incubated at 4° C. for 30 min. The lysates were centrifuged at 14,000 rpm for 20 min at 4° C. The protein concentrations of the cell lysates were measured with the Bradford protein assay reagent (Bio-Rad). Then, 50 μg of proteins was loaded onto 15 SDS-PAGE. The separated proteins were transferred to nitrocellulose membranes (Amersham Pharmacia Biotech, Piscataway, N.J., USA) and probed with each antibody. Immunostaining with the antibodies was carried out using the Super Signal West Pico enhanced chemiluminescence substrate and detected with LAS-3000PLUS.

[3] = tested on: lipid droplets (LD) in rat articular chondrocytes; assay: Lipid droplet staining (Nile red, BODIPY), confocal microscopy and quantification; format: cell-based
Protocol: Rat articular chondrocytes for primary culture were isolated from knee joint cartilage slices by enzymatic digestion for 1 h with 0.2% type II collagenase (381 units/mg) in DMEM. After the isolated cells were collected by brief centrifugation, they were resuspended in DMEM supplemented with 10% (v/v) FBS, […] streptomycin and 50 units/ml penicillin (Gibco). The cells were plated on culture dishes at a density of 5×10^4 cells/cm^2. The medium was replaced every 2 days, and they reached confluence after approximately 5 days in culture. In each experiment, the cells from three animals were pooled and analyzed three times. FFA were dissolved in absolute ethanol at a concentration of 500 mM and diluted to final concentrations of FFAs with the appropriate concentration of 1% (w/v) FFA-free BSA. Controls were incubated with equal concentrations of FFA-free BSA containing ethanol. […] Cells cultured on a coverslip were incubated with diluted Nile red or BODIPY 493/503. Some sections were double-labelled with TUNEL and BODIPY 493/503 and counterstained with Hoechst 33342. Fluorescence images were observed and analyzed using a Zeiss LSM 510 laser-scanning confocal microscope (Goettingen, Germany). Twenty cells from each experiment were observed and auantification of fluorescence intensity of the confocal images were obtained with the use of ImageJ software. Fluorescence intensity was expressed as AU.

[4] = tested on: rat articular chondrocytes; assay: Phase contrast microscopy of oleate-induced cell death; format: cell-based; details: 25 ng/ml TNF-α, 1.5 mM oleate; n=4
[5] = tested on: rat articular chondrocytes; assay: Total cytosol FFA content measurement; format: cell-based
Protocol: Cell were collected after treatment with trypsin (0.2% trypsin, 0.02% EDTA and 0.2% glucose in PBS) and pelleted by centrifugation (200×g for 5 min at 4° C.). Cell pellet was resuspended in ice-cold hypotonic lysis medium containing 20 mM Tris-HCl, pH 7.4 and 1 mM EDTA. Cells were homogenized with a Dounce homogenizer and then centrifuged (800×g for 5 min at 4° C.). The post-nuclear supernatant fraction was ultra-centrifuged ([…] for 5 min at 4° C.) using Beckman Table-top ultracentrifuge. LD fraction with the distinct white band on the preparation was removed with a pipetman and LD-free cytosol was used for FFA measurement. Cytosol FFA levels were measured using a commercial free fatty acid quantification kit from Abcam (ab65341).

[6] = tested on: caspase-3 and -7; assay: Western blot of apoptosis-related factors (caspase-3 and -7 activation); format: cell-based, rat; details: 100 μM DRB with 1 mM oleate; n=4
Protocol: as §1, with “The lysates were centrifuged at 14,000 rpm for 20 min at 4° C.” left out, “Then, 50 μg of proteins was loaded onto 15 SDS-PAGE. The separated proteins were transferred to nitrocellulose membranes (Amersham Pharmacia Biotech, Piscataway, N.J., USA) and probed with each antibody.” left out

[7] = tested on: FSP27; assay: Western blot of FSP27 protein in articular chondrocytes; format: cell-based, rat; details: n=4
Protocol: as §1

CCCCCCCCCCCCCCCCCC(=O)O [stearate, stearic acid] was tested, and the cell viability ([1]; FFA alone at 0.5 to 2 mM) was “significantly reduced cell viability” and the “expression level of STAMP2” value ([2]; FFA at toxic concentrations) was “reduced the expression level of STAMP2”.
With zVAD-fmk the “effect on oleate-induced cell death (viability)” value ([1]; zVAD-fmk with 1.5 mM oleate) was “significantly prevented 1.5 mM oleate-induced cell death”.
TNF-α was tested, and the “effect on oleate-induced cell death (viability)” value ([1]; 25 ng/ml TNF-α, 1.5 mM oleate) was “completely reversed 1.5 mM oleate-induced cell death; also recorded: prevented 1.5 mM oleate-induced cell death”, the “effect on oleate-induced reduction of LD size and total LD volume” value ([3]; TNF-α, 1.5 mM oleate) was “completely reversed the 1.5 mM oleate-induced reduction in total LD volume; also recorded: reversed 1.5 mM oleate-induced reduction of LD size and total LD volume” and the “effect on oleate-induced downregulation of STAMP2 protein” value ([2]; 25 ng/ml TNF-α, 1.5 mM oleate) was “completely reversed the 1.5 mM oleate-induced downregulation of the expression level of STAMP2 protein; also recorded: reversed 1.5 mM oleate (0)-induced downregulation of STAMP2 protein”. The “effect on oleate-induced cell death (phase contrast microscopy)” value [4] was “prevented oleate-induced cell death”.
With OC[C@H]1O[C@@H](n2cnc3cc(Cl)c(Cl)cc32)[C@H](O)[C@@H]1O [DRB, 5,6-dichlorobenzimidazol riboside] the “FFA level in the cytosol” value ([5]; 1.0 mM oleate with DRB versus without) was “significantly increased the FFA level in the cytosol”, the “FFA level in the cytosol” value ([5]; cells treated with 0.6 mM palmitate and 0.4 mM oleate, n=4) was “significantly increased the FFA level in the cytosol” and the “influence on lipotoxicity of oleate/palmitate combination (viability)” value ([1]; 0.4 mM oleate with 0.6 or 1.6 mM palmitate) was “reciprocal influences on lipotoxicity”. The LD accumulation ([3]; DRB in cells treated with 0.4 mM oleate and 0.6 mM palmitate) was “significantly reduced the LD accumulation”, the “LD size and LD accumulation” value ([3]; DRB pre-/co-treatment, 1 mM oleate) was “reversed oleate-induced LD enlargement; also recorded: reduces LD size and LD accumulation” and the “total LD volume” value ([3]; co-treatment with DRB versus 1 mM oleate, n=4) was “significantly decreased”. For the same molecule, the “expression level of STAMP2” value ([2]; DRB) was “decreased”, the “activation of caspase-7 and -3” value [6] was “activated caspase-7 and -3” and the “level of FSP27 protein” value ([7]; 100 μM DRB with 1 mM oleate) was “decreased the levels of FSP27 protein”. The “expression level of FSP27” value ([7]; DRB) was “decreased”.
